Results from PMC9977398, “Next-generation membrane-active glycopeptide antibiotics that also inhibit bacterial cell division” (Chemical Science, 2023).
Values after ≈ are worked out from the molar mass of the structure shown. Read-outs that look alike come from different tables or passages of the source.

Key:
[1] = tested on: human erythrocytes; assay: Haemolysis assay; type: cell-based
Description: To select the lead compounds, the toxicity of 1–10 was tested against human erythrocytes as their hemolytic activity (HC50). The HC50 is determined as the concentration at which 50% of the compound treated cells are lysed. […] The HC50 for compounds 6–8 was also greater than 500 μM. […] Based on the in vitro activity and hemolysis studies, VanQbiph (4) from the aryl-substituted compounds and VanQAmC10 (8) from the alkyl-chain substituted compounds were selected for further investigations. […] VanQAmC10 (8) was additionally non-toxic to RAW 264.7 cells up to 40 μM and was therefore taken forward in vivo investigation.[18]
50 μL of serially diluted compound was added into 96 well microtiter plates. Freshly drawn, heparanized human blood was centrifuged down to obtain the erythrocytes and re-suspended to 5 vol % in PBS (pH 7.4). 150 μL of the erythrocyte suspension was added to the serially diluted compounds (from 500 µM to 2 µM). One set without compound and other with 50 μL of 1 vol % solution of Triton X-100 were kept as controls. The plates were incubated at 37 °C for 1 h followed by centrifugation at 3,500 rpm for 5 min. 100 μL of the supernatant from each well were transferred into fresh microtiter plates, and A540 was measured.
% haemolysis = (A - A0)/(Atotal -A0) × 100, where A is the absorbance of the test well, A 0 the absorbance of the negative controls (without compound), and A total the absorbance of 100 % hemolysis wells (with Triton X -100), all at 540 nm. […]

[2] = tested on: PA R590 (MDR strain of P. aeruginosa); assay: MIC determination, micro-dilution broth; type: cell-based; settings: Pseudomonas aeruginosa; read-out: Minimum inhibitory concentration, PA R590
Description: (§1) The increase in the carbon content of substituted moieties from six (1) to seven (2 and 3) to ten (5) to twelve (4), increased activity. […]
(§2) Test compound was assayed in a micro -dilution broth format as per the CLSI guideline. The bacterial freeze dried stock samples were stored at -80 °C. About 5 μL of these stocks were added to 3 mL of the respective broth and the culture was grown for 6 h at 37°C with prior to the experiments. This 6 h grown culture was diluted to give effective cell concentration of 10 5 CFU/mL which was then used for determining MIC. Compounds were serially diluted 2 -fold, in sterile millipore water and 50 μL of these serial dilutions were added to the wells of 96 well plate followed by the addition of about 150 μL of bacterial solution. The plates were then incubated for 18-24 h at 37 °C. The O.D. value at 600 nm was recorded using TECAN (Infinite series, M200 pro) Plate Reade r. Each concentration had triplicate values and the whole experiment was done at least twice and the MIC value was determined by taking the average of triplicate O. D. values for each concentration and plotting it against concentration. The data was then subjected to sigmoidal fitting. From the curve the MIC value was determined, as the point where the O. D. was similar to that of control having no bacteria.

[3] = tested on: VRSA 12 (vancomycin-resistant S. aureus); assay: MIC determination, micro-dilution broth; type: cell-based; settings: Staphylococcus aureus, read-out: Minimum inhibitory concentration, VRSA 12
Description: as §1, §2

[4] = tested on: VRSA 1 (vancomycin-resistant S. aureus); assay: MIC determination, micro-dilution broth; type: cell-based; settings: Staphylococcus aureus, read-out: Minimum inhibitory concentration, VRSA 1
Description: as §1, §2

[5] = tested on: VRE 51575 (vancomycin-resistant E. faecalis, VanB phenotype, ATCC 51575); assay: MIC determination, micro-dilution broth; type: cell-based; settings: Enterococcus; read-out: Minimum inhibitory concentration, VRE 51575
Description: as §1, §2

[6] = tested on: VRSA 4 (vancomycin-resistant S. aureus); assay: MIC determination, micro-dilution broth; type: cell-based; settings: Staphylococcus aureus, read-out: Minimum inhibitory concentration, VRSA 4
Description: as §1, §2

[7] = tested on: VRE 51559 (vancomycin-resistant E. faecium, VanA phenotype, ATCC 51559); assay: MIC determination, micro-dilution broth; type: cell-based; settings: Enterococcus; read-out: Minimum inhibitory concentration, VRE 51559
Description: as §1, §2

[8] = tested on: AB R674 (A. baumannii); assay: MIC determination, micro-dilution broth; type: cell-based; settings: Acinetobacter baumannii; read-out: Minimum inhibitory concentration, AB R674
Description: as §1, §2

[9] = tested on: AB 1425 (A. baumannii MTCC 1425); assay: MIC determination, micro-dilution broth; type: cell-based; settings: Acinetobacter baumannii, MTCC1425; read-out: Minimum inhibitory concentration, AB 1425
Description: as §1, §2

[10] = tested on: MRSA, methicillin-resistant S. aureus (ATCC 33591); assay: MIC determination, micro-dilution broth; type: cell-based; settings: Staphylococcus aureus; MRSA ATCC 33591; read-out: Minimum inhibitory concentration, MRSA
Description: as §1, §2

[11] = tested on: VRE (VanA phenotype); set-up: method as in PMID 27663982, PMID 24846441, PMID 14972384; settings: cited from earlier work

Row | SMILES | MIC [2] | MIC [3] | MIC [4] | MIC [5] | MIC [6] | MIC [7] | MIC [8] | MIC [9] | MIC [10] | HC50 ([1]; human, 1 h, pH 7.4) | HC50 [1] | MIC against VRE (VanA phenotype) [11]
1 | CNC(CC(C)C)C(=O)NC1C(=O)NC(CC(N)=O)C(=O)NC2C(=O)NC3C(=O)NC(C(=O)NC(C(=O)NCCC[N+](C)(C)Cc4ccccc4)c4cc(O)cc(O)c4-c4cc3ccc4O)C(O)c3ccc(c(Cl)c3)Oc3cc2cc(c3OC2OC(CO)C(O)C(O)C2OC2CC(C)(N)C(O)C(C)O2)Oc2ccc(cc2Cl)C1O (stereo not shown) [VanQph (1)] | > 30 µM | > 30 µM | > 30 µM | > 30 µM | > 30 µM | > 30 µM | 25.5 µM | > 30 µM | 1 µM | >500 µM |  | 
2 | CNC(CC(C)C)C(=O)NC1C(=O)NC(CC(N)=O)C(=O)NC2C(=O)NC3C(=O)NC(C(=O)NC(C(=O)NCCC[N+](C)(C)Cc4ccc(C)cc4)c4cc(O)cc(O)c4-c4cc3ccc4O)C(O)c3ccc(c(Cl)c3)Oc3cc2cc(c3OC2OC(CO)C(O)C(O)C2OC2CC(C)(N)C(O)C(C)O2)Oc2ccc(cc2Cl)C1O (stereo not shown) [VanQtol (2)] | > 30 µM | > 30 µM | > 30 µM | > 30 µM | 16 µM | > 30 µM | 25.3 µM | > 30 µM | 1 µM | >500 µM |  | 
3 | CN[C@H]1C(=O)N[C@@H]2Cc3ccc(cc3)Oc3cc4cc(c3O[C@@H]3O[C@H](C(=O)O)[C@@H](O)[C@H](O)[C@H]3NC(=O)CCCCCCCCC(C)C)Oc3ccc(cc3Cl)[C@@H](O)[C@@H]3NC(=O)[C@H](NC(=O)[C@@H]4NC(=O)[C@@H](NC2=O)c2cc(cc(O)c2Cl)Oc2cc1ccc2O)c1ccc(O)c(c1)-c1c(O[C@H]2O[C@H](CO)[C@@H](O)[C@H](O)[C@@H]2O)cc(O)cc1[C@@H](C(=O)NCCCN(C)C)NC3=O [dalbavancin] |  |  |  |  |  |  |  |  |  |  |  | 18 µM (≈ 32.7 µg/mL)
4 | CN[C@H](CC(C)C)C(=O)N[C@H]1C(=O)N[C@@H](CC(N)=O)C(=O)N[C@H]2C(=O)N[C@H]3C(=O)N[C@H](C(=O)N[C@H](C(=O)O)c4cc(O)cc(O)c4-c4cc3ccc4O)[C@H](O[C@H]3C[C@](C)(N)[C@@H](O)[C@H](C)O3)c3ccc(c(Cl)c3)Oc3cc2cc(c3O[C@@H]2O[C@H](CO)[C@@H](O)[C@H](O)[C@H]2O[C@H]2C[C@](C)(NCc3ccc(-c4ccc(Cl)cc4)cc3)[C@@H](O)[C@H](C)O2)Oc2ccc(cc2Cl)[C@H]1O [oritavancin] |  |  |  |  |  |  |  |  |  |  |  | 0.14 µM (≈ 0.251 µg/mL)
5 | CCCCCCCCCCNCCN[C@@]1(C)C[C@H](O[C@H]2[C@H](Oc3c4cc5cc3Oc3ccc(cc3Cl)[C@@H](O)[C@@H](NC(=O)[C@@H](CC(C)C)NC)C(=O)N[C@@H](CC(N)=O)C(=O)N[C@H]5C(=O)N[C@H]3C(=O)N[C@H](C(=O)N[C@H](C(=O)O)c5cc(O)c(CNCP(=O)(O)O)c(O)c5-c5cc3ccc5O)[C@H](O)c3ccc(c(Cl)c3)O4)O[C@H](CO)[C@@H](O)[C@@H]2O)O[C@@H](C)[C@H]1O [telavancin] |  |  |  |  |  |  |  |  |  |  |  | 4 µM (≈ 7.02 µg/mL)

More lines, main results first:

Row | MIC [2] | MIC [3] | MIC [4] | MIC [5] | MIC [6] | MIC [7] | MIC [8] | MIC [9] | MIC [10] | SMILES | HC50 ([1]; human, 1 h, pH 7.4) | HC50 [1] | MIC against VRE (VanA phenotype) [11]
6 | 12.5 µM | > 30 µM | > 30 µM | > 30 µM | 6.3 µM | 25 µM | 12.5 µM | 25 µM | 0.8 µM | CCCCCCNC(=O)C[N+](C)(C)CCCNC(=O)C1NC(=O)C2NC(=O)C(NC(=O)C3NC(=O)C(CC(N)=O)NC(=O)C(NC(=O)C(CC(C)C)NC)C(O)c4ccc(c(Cl)c4)Oc4cc3cc(c4OC3OC(CO)C(O)C(O)C3OC3CC(C)(N)C(O)C(C)O3)Oc3ccc(cc3Cl)C2O)c2ccc(O)c(c2)-c2c(O)cc(O)cc21 (stereo not shown) [VanQAmC6 (6)] | >500 µM |  | 
7 | 6.3 µM | > 30 µM | 3.1 µM | 25 µM | 3.1 µM | 12.5 µM | 12.5 µM | 12.5 µM | 0.8 µM | CCCCCCCCNC(=O)C[N+](C)(C)CCCNC(=O)C1NC(=O)C2NC(=O)C(NC(=O)C3NC(=O)C(CC(N)=O)NC(=O)C(NC(=O)C(CC(C)C)NC)C(O)c4ccc(c(Cl)c4)Oc4cc3cc(c4OC3OC(CO)C(O)C(O)C3OC3CC(C)(N)C(O)C(C)O3)Oc3ccc(cc3Cl)C2O)c2ccc(O)c(c2)-c2c(O)cc(O)cc21 (stereo not shown) [VanQAmC8 (7)] | >500 µM |  | 
8 | 6.3 µM | 3 µM | 1.5 µM | 3.1 µM | 0.7 µM | 1.5 µM | 6.3 µM | 6.3 µM | 3.12 µM | CCCCCCCCCCCCNC(=O)C[N+](C)(C)CCCNC(=O)C1NC(=O)C2NC(=O)C(NC(=O)C3NC(=O)C(CC(N)=O)NC(=O)C(NC(=O)C(CC(C)C)NC)C(O)c4ccc(c(Cl)c4)Oc4cc3cc(c4OC3OC(CO)C(O)C(O)C3OC3CC(C)(N)C(O)C(C)O3)Oc3ccc(cc3Cl)C2O)c2ccc(O)c(c2)-c2c(O)cc(O)cc21 (stereo not shown) [VanQAmC12 (9)] | 350 µM | caused hemolysis | 
9 | 6.3 µM | 3 µM | 3 µM | 3.1 µM | 1.5 µM | 1.5 µM | 12.5 µM | 6.3 µM | 6.25 µM | CCCCCCCCCCCCCCNC(=O)C[N+](C)(C)CCCNC(=O)C1NC(=O)C2NC(=O)C(NC(=O)C3NC(=O)C(CC(N)=O)NC(=O)C(NC(=O)C(CC(C)C)NC)C(O)c4ccc(c(Cl)c4)Oc4cc3cc(c4OC3OC(CO)C(O)C(O)C3OC3CC(C)(N)C(O)C(C)O3)Oc3ccc(cc3Cl)C2O)c2ccc(O)c(c2)-c2c(O)cc(O)cc21 (stereo not shown) [VanQAmC14 (10)] | 150 µM | caused hemolysis | 
10 | > 30 µM | > 30 µM | > 30 µM | 25 µM | 3.9 µM | 25 µM | 24.8 µM | > 30 µM | 1 µM | CNC(CC(C)C)C(=O)NC1C(=O)NC(CC(N)=O)C(=O)NC2C(=O)NC3C(=O)NC(C(=O)NC(C(=O)NCCC[N+](C)(C)Cc4cccc5ccccc45)c4cc(O)cc(O)c4-c4cc3ccc4O)C(O)c3ccc(c(Cl)c3)Oc3cc2cc(c3OC2OC(CO)C(O)C(O)C2OC2CC(C)(N)C(O)C(C)O2)Oc2ccc(cc2Cl)C1O (stereo not shown) [VanQnaph (5)] | >500 µM |  | 
11 | 24.6 µM | > 30 µM | > 30 µM | > 30 µM | 15.8 µM | > 30 µM | 24.6 µM | > 30 µM | 1 µM | CNC(CC(C)C)C(=O)NC1C(=O)NC(CC(N)=O)C(=O)NC2C(=O)NC3C(=O)NC(C(=O)NC(C(=O)NCCC[N+](C)(C)Cc4ccc(C(F)(F)F)cc4)c4cc(O)cc(O)c4-c4cc3ccc4O)C(O)c3ccc(c(Cl)c3)Oc3cc2cc(c3OC2OC(CO)C(O)C(O)C2OC2CC(C)(N)C(O)C(C)O2)Oc2ccc(cc2Cl)C1O (stereo not shown) [VanQphCF3 (3)] | >500 µM |  | 
